The values below come from PubChem BioAssay (NCI).

Several values for one entry are separate records, joined by “and”; a condition that tells them apart may be missing. Identical values can stand only once.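 Values below derive from 48-hour exposures of cells grown in 96-well plates, with endpoints linearly interpolated between the two concentrations bracketing the appropriate inhibition level. Abbreviation: GI50, concentration required for 50% inhibition of growth. At the TGI there is no net growth.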

Test systems include SNB-78 CNS; M19-MEL melanoma; DMS 114 small cell lung; LXFL 529 NSCLC; HOP-18 NSCLC; DMS 273 small cell lung; HS 578T breast; BT-549 breast; MDA-MB-435; MCF7 breast; NCI/ADR-RES ovarian; DU-145 prostate; T-47D breast.
Common to all, as to experiment: NCI anticancer screen, dose series, 48 h

For `CC1c2c(Cl)nc3ccccc3c2Oc2c1c(Cl)nc1ccccc21`, the TGI in the test on SNB-78 CNS, in the test on M19-MEL melanoma, with DMS 114 small cell lung, in the test on LXFL 529 NSCLC, in the test with HOP-18 NSCLC and in the test with DMS 273 small cell lung was greater than 100 µM each time.

With `O=C1/C(=C/c2ccc(Cl)cc2)CCC1CCN1CCOCC1` (stereo not drawn), the TGI in the test on SNB-78 CNS, with M19-MEL melanoma, in the test with DMS 114 small cell lung, in the test on LXFL 529 NSCLC, in the test on HOP-18 NSCLC and in the test on DMS 273 small cell lung was greater than 100 µM each time.

Regarding `N#C/C1=C(\N)CCSSSC1`, the TGI in the test on SNB-78 CNS, in the test with M19-MEL melanoma, in the test with DMS 114 small cell lung, with LXFL 529 NSCLC and in the test on DMS 273 small cell lung was greater than 100 µM each time.

In the case of `O=c1ccn([C@H]2CSC[C@@H](CO)C2)c(=O)[nH]1`, the TGI in the test with SNB-78 CNS, in the test on M19-MEL melanoma, in the test with DMS 114 small cell lung, with LXFL 529 NSCLC, with HOP-18 NSCLC and in the test with DMS 273 small cell lung was greater than 100 µM each time.

As for `CC12CP(=O)(c3ccccc3)CC1C2(Cl)Cl` (stereo not drawn), the TGI in the test on SNB-78 CNS, in the test with M19-MEL melanoma, with DMS 114 small cell lung, in the test on LXFL 529 NSCLC, in the test on HOP-18 NSCLC and with DMS 273 small cell lung was greater than 100 µM throughout.

As for `[N-]=[N+]=N[C@H]1C[C@@H](CO)O[C@H]1n1cnc2c(N)ncnc21`, the TGI in the test on SNB-78 CNS, with M19-MEL melanoma, with DMS 114 small cell lung, with LXFL 529 NSCLC, in the test with HOP-18 NSCLC and in the test with DMS 273 small cell lung was greater than 100 µM throughout.

Regarding `COc1cccc(C2=NC(C(C)C)CO2)c1` (stereo not drawn), the TGI with SNB-78 CNS, in the test with M19-MEL melanoma, with DMS 114 small cell lung, in the test on LXFL 529 NSCLC and with DMS 273 small cell lung was greater than 100 µM in each case.

Regarding `CCC(C)COC(=O)c1ccc(N=Cc2ccc(C=Nc3ccc(C(=O)OCC(C)CC)cc3)cc2)cc1` (stereo not drawn), the TGI in the test on SNB-78 CNS, in the test with DMS 114 small cell lung, in the test with LXFL 529 NSCLC, with HOP-18 NSCLC and in the test with DMS 273 small cell lung was greater than 100 µM each time.

With `Cc1[nH]c2ccccc2c1C(=O)/C=C/c1ccccc1O`, the TGI with M19-MEL melanoma, with LXFL 529 NSCLC, in the test on HOP-18 NSCLC and in the test on DMS 273 small cell lung was greater than 100 µM in each case.

Regarding `O=C(Nc1nc(=S)c2c(ncn2CCOC(=O)c2ccccc2)[nH]1)c1ccccc1`, the TGI in the test on SNB-78 CNS, with M19-MEL melanoma, in the test on DMS 114 small cell lung, in the test with LXFL 529 NSCLC, with HOP-18 NSCLC and with DMS 273 small cell lung was greater than 100 µM throughout.

For the compound `COC1(OC)C(N(C)C)=C(Cl)C(=O)/C1=C/C=O`, the TGI with M19-MEL melanoma, in the test with DMS 114 small cell lung, with LXFL 529 NSCLC, with HOP-18 NSCLC and with DMS 273 small cell lung was greater than 100 µM each time.

Turning to `CC1CN(C(=O)CN2CCC(CCCCN(C)C)CC2)c2ccccc2NC1=O` (stereo not drawn), the TGI in the test on M19-MEL melanoma, with DMS 114 small cell lung, in the test on LXFL 529 NSCLC, in the test on HOP-18 NSCLC and with DMS 273 small cell lung was greater than 100 µM throughout.

Regarding `Cc1ccccc1N1C(=O)C2C=CC(n3[nH]c(=O)n(Cc4ccccc4)c3=O)CC2C1=O` (stereo not drawn), the TGI with SNB-78 CNS, in the test on M19-MEL melanoma, with DMS 114 small cell lung, in the test with LXFL 529 NSCLC, in the test on HOP-18 NSCLC and in the test with DMS 273 small cell lung was greater than 100 µM throughout.

For the compound `CCOc1ccccc1NC(=O)C(=O)CC(=O)c1sc(Nc2nnc(-c3ccc(Cl)c(Cl)c3)o2)nc1C`, the TGI with SNB-78 CNS, with M19-MEL melanoma, in the test with DMS 114 small cell lung, in the test with LXFL 529 NSCLC, in the test on HOP-18 NSCLC and in the test with DMS 273 small cell lung was greater than 100 µM throughout.

Regarding `C1CN2CCN3CCN4CCN1[P+]243`, the TGI with SNB-78 CNS, with M19-MEL melanoma, with DMS 114 small cell lung, in the test with LXFL 529 NSCLC, in the test on HOP-18 NSCLC and in the test on DMS 273 small cell lung was greater than 100 µM throughout.

With `CCN1CCC(O)(c2ccc(OC)cc2)C(C(=O)c2ccc(OC)cc2)C1` (stereo not drawn), the TGI with SNB-78 CNS was 59.3 µM; with M19-MEL melanoma it was 34.9 µM; in the test with DMS 114 small cell lung it was 40.8 µM; in the test on LXFL 529 NSCLC it was 37.2 µM; in the test with DMS 273 small cell lung, 50.2 µM.

Take `COc1cc2c(c(OC)c1OC)-c1ccc(SC)c(=O)cc1C(NC=O)CC2` (stereo not drawn): the TGI in the test with SNB-78 CNS was greater than 100 µM; with M19-MEL melanoma, greater than 100 µM; in the test on HS 578T breast, greater than 75.5 µM; with DMS 114 small cell lung, less than 0.01 µM; in the test with BT-549 breast, greater than 100 µM; in the test with MDA-MB-435 it was less than 0.01 µM. In addition, the TGI in the test on MCF7 breast is 42 µM; in the test on HOP-18 NSCLC, greater than 100 µM; in the test on NCI/ADR-RES ovarian it was 0.273 µM; in the test with DU-145 prostate it was less than 0.01 µM; with DMS 273 small cell lung, greater than 100 µM; with T-47D breast, greater than 100 µM.

Turning to `O=C1/C(=C/c2ccc3c(c2)OCO3)SC2C=Nc3ccccc3N12` (stereo not drawn), the TGI in the test on SNB-78 CNS, in the test on M19-MEL melanoma, in the test with DMS 114 small cell lung, in the test on LXFL 529 NSCLC, in the test with HOP-18 NSCLC and with DMS 273 small cell lung was greater than 100 µM in each case.

With `CCOc1ccc(NC(=O)C(=O)CC(=O)c2c(C)n([O-])c3ccccc3[n+]2=O)cc1`, the TGI in the test with SNB-78 CNS, with M19-MEL melanoma, in the test with DMS 114 small cell lung, with LXFL 529 NSCLC, with HOP-18 NSCLC and in the test on DMS 273 small cell lung was greater than 100 µM throughout.

As for `COc1cc(NCc2ccc3nc(N)nc(N)c3c2C)cc(OC)c1OC` (tested in a mixture with another compound), the TGI in the test with SNB-78 CNS was 116 µM; in the test with M19-MEL melanoma, 52.5 µM; in the test on DMS 114 small cell lung, 37.7 µM; in the test on BT-549 breast, 34.2 µM and 45.4 µM; with MDA-MB-435, 50.1 µM; with MCF7 breast, 28.7 µM. In addition, the TGI in the test with HOP-18 NSCLC is 146 µM; with NCI/ADR-RES ovarian it was 229 µM; with DU-145 prostate, 38.2 µM; in the test with DMS 273 small cell lung, 12.3 µM; with T-47D breast it was 65.7 µM. The GI50 in the test with HS 578T breast was 29 µM and 8.3 µM; in the test with BT-549 breast, 0.0611 µM; in the test on MDA-MB-435, 0.000388 µM; in the test with DU-145 prostate, 0.172 µM and 0.025 µM.

Regarding `O=C(/C=C/c1cccc2ccccc12)c1ccccc1Cl`, the TGI with SNB-78 CNS stood at 40.9 µM; in the test on DMS 114 small cell lung, 27.6 µM; in the test with LXFL 529 NSCLC it was 26.8 µM; in the test with HOP-18 NSCLC, 33.3 µM; in the test on DMS 273 small cell lung, 31.5 µM.

Take `CCOc1ccc(NC(=O)CC#N)cc1`: the TGI in the test with SNB-78 CNS, in the test on M19-MEL melanoma, in the test with LXFL 529 NSCLC, with HOP-18 NSCLC and with DMS 273 small cell lung was greater than 100 µM each time.

For the compound `Cc1cc(Cl)ccc1NC(=O)C(=O)Cc1nc2ccccc2o1`, the TGI in the test on SNB-78 CNS, in the test with M19-MEL melanoma, in the test on DMS 114 small cell lung, in the test on LXFL 529 NSCLC, with HOP-18 NSCLC and with DMS 273 small cell lung was greater than 100 µM each time.

Take `CC(=O)Oc1c2c(c(O)c3ccccc13)C(n1cnc3c(ncn3C3OC(CO)C4OC(C)(C)OC43)c1=N)CCC2` (stereo not drawn): the TGI came out at 59.6 µM in the test on SNB-78 CNS; 23.8 µM in the test with M19-MEL melanoma; 21.7 µM in the test on DMS 114 small cell lung; 34.6 µM in the test on HOP-18 NSCLC; 40.6 µM with DMS 273 small cell lung.

As to `CCOC(=O)C(=[N+]=[N-])[Si](C)(C)C`, the TGI with SNB-78 CNS, in the test on M19-MEL melanoma, in the test with DMS 114 small cell lung, with HOP-18 NSCLC and in the test on DMS 273 small cell lung was greater than 100 µM each time.

As for `Cc1ccc(/C=C/C(=O)c2sc(-c3nc(C)c(C(=O)/C=C/c4ccc(C)cc4)s3)nc2C)cc1`, the TGI in the test with SNB-78 CNS, with M19-MEL melanoma, in the test on DMS 114 small cell lung, in the test with HOP-18 NSCLC and in the test with DMS 273 small cell lung was greater than 100 µM throughout.

Take `COc1ccc(CC2NCCc3c2[nH]c2ccccc32)cc1` (stereo not drawn): the TGI with SNB-78 CNS is greater than 100 µM; in the test on M19-MEL melanoma, greater than 100 µM; in the test on DMS 114 small cell lung, greater than 100 µM; with LXFL 529 NSCLC, greater than 100 µM; in the test with DMS 273 small cell lung it was 87.7 µM.

Take `C1=CC(N(c2ccccc2)C2C=CCCC2)CCC1` (stereo not drawn): the TGI in the test on M19-MEL melanoma, with DMS 114 small cell lung, in the test with LXFL 529 NSCLC, in the test on HOP-18 NSCLC and with DMS 273 small cell lung was greater than 100 µM in each case.

For `N#CC(C(=O)C(=O)C(C#N)c1ccc(Br)cc1)c1ccc(Br)cc1` (stereo not drawn), the TGI with SNB-78 CNS stood at 37.4 µM; with M19-MEL melanoma it was 25.8 µM; with DMS 114 small cell lung, 26.5 µM; with HOP-18 NSCLC, 25.9 µM; in the test on DMS 273 small cell lung, 24.9 µM.

On to `CN=C1CC2c3cc(OC)c(OC)cc3CCN2C2=C1C(=O)CC(C)(C)C2` (stereo not drawn), for which the TGI with SNB-78 CNS, in the test with M19-MEL melanoma, in the test on DMS 114 small cell lung, with LXFL 529 NSCLC and in the test on DMS 273 small cell lung was greater than 100 µM each time.

As for `Cc1ccc(NC(=O)CCc2cc(C(C)(C)C)nc(=S)[nH]2)cc1C`, the TGI in the test with SNB-78 CNS, with DMS 114 small cell lung, in the test on LXFL 529 NSCLC, with HOP-18 NSCLC and in the test on DMS 273 small cell lung was greater than 100 µM each time.
